Source: patent US20100093719A1, “PHARMACOKINETICALLY IMPROVED COMPOUNDS” (SURFACE LOGIX, INC., priority 2005, published 2010)
≈ marks a conversion by molar mass, not a printed value. Where two headings read alike, the source gives them in different places.

Key:
Caco-2 = Caco-2 permeability; assay type: in vitro ADME
Description: Several model systems are available, employing monolayers of various cell types, for evaluation of active transport of pharmaceutically active substances. For example, monolayers of Caco-2 intestinal epithelial cells can be used to evaluate active transport of substances between the intestine and the bloodstream. When plated on a surface which allows the flow of material from apical to basolateral and vice versa, such cells form a biological membrane which can be used to simulate physiological absorption and bio-availability. In another example, mouse brain capillary endothelial cell (MBEC) lines have been established to evaluate active transport in and out of the central nervous system. Another example of such cells is HT29 human colon carcinoma cells. Further, monolayers expressing particular transporter proteins can be established using transfected cells. For example, Sasaki et al (2002) J. Biol. Chem. 8:6497 used a double-transfected Madin-Darby canine kidney cell monolayer to study transport of organic anions.

PAMPA permeability = assay type: in vitro ADME
Solubility = assay type: physicochemical
RLM stability T1/2 = assay type: in vitro ADME; conditions: rat, liver microsomes
Non-specific binding = assay type: in vitro ADME
PDE-1 = test: Phosphodiesterase inhibition PDE-1; assay type: biochemical
Experimental: (§1) Phosphodiesterase inhibition was determined by methods known to one of skill in the art.

PDE-3 = test: Phosphodiesterase inhibition PDE-3; assay type: biochemical
Experimental: as §1

PDE-5 = PDE-5 (Bos taurus, UniProt Q28156); test: Phosphodiesterase inhibition PDE-5 bovine; assay type: biochemical
Experimental: as §1

PDE5 = PDE5 (Homo sapiens, UniProt O76074); test: Phosphodiesterase inhibition PDE-5 human; assay type: biochemical
Experimental: as §1

PDE-6 = test: Phosphodiesterase inhibition PDE-6; assay type: biochemical
Experimental: as §1

Cytotox GC50 = assay type: cell-based
Cytotox LC50 = conditions: read-out: Cytotox LC50 Acute
[1] = pH 2.7, aqueous buffer, read-out: Solubility pH 2.7
[2] = pH 7.4, aqueous buffer, read-out: Solubility pH 7.4

| SMILES | Caco-2 AtoB (Caco-2) | Caco-2 BtoA (Caco-2) | PAMPA Hex (PAMPA permeability) | PAMPA Lec (PAMPA permeability) | solubility (Solubility; [1]) [µM] | solubility (Solubility; [2]) [µM] | half-life (RLM stability T1/2) [min] | Non-Spec Binding (Non-specific binding) [%] | IC50 (PDE-1) [nM] | IC50 (PDE-3) [nM] | IC50 (PDE-5) [nM] | IC50 (PDE5) [nM] | IC50 (PDE-6) [nM] | Cytotox GC50 (Cytotox GC50) [µM] | CC50 (in vitro) [µM] | CC50 (Cytotox LC50) [µM] |
| --- | --- | --- | --- | --- | --- | --- | --- | --- | --- | --- | --- | --- | --- | --- | --- | --- |
| CCCc1nc(C)c2c(=O)[nH]c(-c3cc(S(=O)(=O)N(C)CC(=O)N(C)C)ccc3OCC)nn12 [Compound 1] | 17.46 10^−6 | 48.88 10^−6 | 5.49 10^−6 | 0.128 10^−6 | > 100 | 96.1 (≈ 47.2 µg/mL) | 22 | 11.07 | 25 | 986 | 0.122 | 0.097 | 3.5 | 76.7 | 75 | 100 |
| CCCc1nc(C)c2c(=O)[nH]c(-c3cc(S(=O)(=O)N(C)[C@H](C)C(=O)N(C)C)ccc3OCC)nn12 [Compound 2] | 33.33 10^−6 | 61.33 10^−6 | 18.2 10^−6 | – | > 100 | > 100 | 32.6 | 20.7 | 13 | 507 | 0.101 | 0.0395 | 0.605 | 94.6 | ≥ 100 | 100 |
| CCCc1nc(C)c2c(=O)[nH]c(-c3cc(S(=O)(=O)N(C)C(C)(C)C(=O)N(C)C)ccc3OCC)nn12 [Compound 3] | 28.85 10^−6 | 58.45 10^−6 | 9.11 10^−6 | – | > 100 | > 100 | 72.7 | 14.3 | 10 | 412 | 0.138 | 0.16 | 1.7 | 100 | ≥ 100 | 100 |
| CCCc1nc(C)c2c(=O)[nH]c(-c3cc(S(=O)(=O)N(C)CC(=O)N(C)CC(=O)N(C)C)ccc3OCC)nn12 [Compound 4] | 2.97 10^−6 | 25.95 10^−6 | 0.47 10^−6 | 0.056 10^−6 | 112 (≈ 62.9 µg/mL) | 109 (≈ 61.2 µg/mL) | 64 | 7 | – | – | 0.084 | 0.11 | – | – | – | – |
| CCCc1nc(C)c2c(=O)[nH]c(-c3cc(S(=O)(=O)N4CCCC4C(=O)N(C)C)ccc3OCC)nn12 (centres unmarked) [Compound 5] | 19.4 10^−6 | 60.2 10^−6 | 13.18 10^−6 | – | 100 (≈ 51.7 µg/mL) | 93 (≈ 48 µg/mL) | 30.1 | – | – | – | 1.6 | 2.3 | – | – | – | – |
| CCCc1nc(C)c2c(=O)[nH]c(-c3cc(S(=O)(=O)N(C)CC(=O)N4CCOCC4)ccc3OCC)nn12 [Compound 6] | 11.16 10^−6 | 55.15 10^−6 | 0.78 10^−6 | – | > 100 | > 100 | – | 7.3 | – | – | – | 0.68 | – | – | – | – |
| CCCc1nc(C)c2c(=O)[nH]c(-c3cc(S(=O)(=O)N(C)CC(=O)N4CCN(C)CC4)ccc3OCC)nn12 [Compound 7] | 4.35 10^−6 | 35.58 10^−6 | 0.18 10^−6 | – | > 100 | > 100 | – | 2.6 | – | – | – | 0.535 | – | – | – | – |
| CCCc1nc(C)c2c(=O)[nH]c(-c3cc(S(=O)(=O)N(C)CC(=O)N(CC)CC)ccc3OCC)nn12 [Compound 8] | 42.03 10^−6 | 77.41 10^−6 | 21.81 10^−6 | – | > 100 | > 100 | 15 | 19 | – | – | – | 0.78 | – | – | – | – |
| CCCc1nc(C)c2c(=O)[nH]c(-c3cc(S(=O)(=O)N(C)CC(=O)N(C)CCN(C)C)ccc3OCC)nn12 [Compound 9] | 2.33 10^−6 | 11.31 10^−6 | 0.03 10^−6 | – | > 100 | > 100 | – | 9.8 | – | – | – | 1.5 | – | – | – | – |
| CCCc1nc(C)c2c(=O)[nH]c(-c3cc(S(=O)(=O)N(CC)CC(=O)N(CC)CC)ccc3OCC)nn12 [Compound 10] | – | – | 67.04 10^−6 | – | 77.9 (≈ 41.5 µg/mL) | 78.5 (≈ 41.8 µg/mL) | – | – | – | – | – | 0.32 | – | – | – | – |
| CCCc1nc(C)c2c(=O)[nH]c(-c3cc(S(=O)(=O)N(C)[C@@H](C)C(=O)N(C)C)ccc3OCC)nn12 [Compound 12] | 33.39 10^−6 | 50.43 10^−6 | 13.93 10^−6 | – | 96 (≈ 48.4 µg/mL) | 100 (≈ 50.5 µg/mL) | 32.2 | 30.7 | – | – | – | 0.298 | – | 99.3 | ≥ 100 | 100 |
| CCCc1nc(C)c2c(=O)[nH]c(-c3cc(S(=O)(=O)N(C)[C@@H](C)C(=O)NC)ccc3OCC)nn12 [Compound 13] | – | – | 0.42 10^−6 | – | 69.4 (≈ 34 µg/mL) | 74.6 (≈ 36.6 µg/mL) | – | – | – | – | – | 0.17 | – | 94.0 | ≥ 100 | – |
| CCCc1nc(C)c2c(=O)[nH]c(-c3cc(S(=O)(=O)N(C)[C@H](C)C(=O)NC)ccc3OCC)nn12 [Compound 14] | – | – | 0.47 10^−6 | – | 62.6 (≈ 30.7 µg/mL) | 64 (≈ 31.4 µg/mL) | – | – | – | – | – | 0.35 | – | 88.0 | ≥ 100 | – |
| CCCc1nc(C)c2c(=O)[nH]c(-c3cc(S(=O)(=O)N(C)C(C)(C)C(=O)NC)ccc3OCC)nn12 [Compound 15] | 6.8 10^−6 | 34.9 10^−6 | 0.25 10^−6 | – | – | – | – | – | – | – | – | 0.256 | – | 95.0 | ≥ 100 | – |
| CCCc1nc(C)c2c(=O)[nH]c(-c3cc(S(=O)(=O)N(C)C4(C(=O)N(C)C)CC4)ccc3OCC)nn12 [Compound 16] | – | – | 3.41 10^−6 | – | 74.7 (≈ 38.6 µg/mL) | 82.5 (≈ 42.6 µg/mL) | – | – | – | – | – | 0.42 | – | 100 | ≥ 100 | – |
| CCCc1nc(C)c2c(=O)[nH]c(-c3cc(S(=O)(=O)N[C@@H](C)C(=O)N(C)C)ccc3OCC)nn12 [Compound 17] | – | – | 0.26 10^−6 | – | 70 (≈ 34.4 µg/mL) | 78.4 (≈ 38.5 µg/mL) | – | – | – | – | – | 0.66 | – | 100 | ≥ 100 | – |
| CCCc1nc(C)c2c(=O)[nH]c(-c3cc(S(=O)(=O)N[C@H](C)C(=O)N(C)C)ccc3OCC)nn12 [Compound 18] | – | – | 0.18 10^−6 | – | 70.3 (≈ 34.5 µg/mL) | 75.8 (≈ 37.2 µg/mL) | – | – | – | – | – | 0.36 | – | 100 | ≥ 100 | – |
| CCCc1nc(C)c2c(=O)[nH]c(-c3cc(S(=O)(=O)NC(C)(C)C(=O)N(C)C)ccc3OCC)nn12 [Compound 19] | 2.43 10^−6 | 33 10^−6 | 0.17 10^−6 | – | > 100 | 7.1 (≈ 3.58 µg/mL) | – | – | – | – | – | 0.193 | – | 100 | ≥ 100 | – |
| CCCc1nc(C)c2c(=O)[nH]c(-c3cc(S(=O)(=O)N(C)CC(=O)NC)ccc3OCC)nn12 [Compound 21] | 5.15 10^−6 | 31.45 10^−6 | 0.24 10^−6 | – | > 100 | > 100 | – | – | – | – | – | 0.25 | – | – | – | – |
